Measurements as given in ChEMBL document CHEMBL1201862, “PubChem BioAssay data set” (2004).
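96-well plates; 48 h exposure; 5 concentrations. Endpoints by linear interpolation between flanking doses. Not reached: highest tested concentration assigned. Abbreviation: GI50, concentration required for 50% inhibition of growth.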 The source made the active and inactive calls. Rule as the data show it: active = GI50 up to about 1.1 µM and inactive = higher.

Experiments:
Experiment in all cases: growth of human tumour cells (NCI), 48 h
[1] = system: T47D
[2] = system: OVCAR-8
[3] = system: EKVX
[4] = system: CAKI-1
[5] = system: HCT-116
[6] = system: U-251
[7] = system: BT-549
[8] = system: UO-31
[9] = system: OVCAR-4
[10] = system: OVCAR-3
[11] = system: MDA-N
[12] = system: SW-620
[13] = system: PC-3
[14] = system: OVCAR-5
[15] = system: TK-10
[16] = system: RXF 393
[17] = system: SK-MEL-28
[18] = system: NCI-H226
[19] = system: NCI/ADR-RES
[20] = system: K562
[21] = system: SF-295
[22] = system: HL-60
[23] = system: SR
[24] = system: A549
[25] = system: SK-MEL-5
[26] = system: RPMI-8226
[27] = system: SK-MEL-2
[28] = system: SN12C
[29] = system: HOP-62
[30] = system: KM12
[31] = system: HOP-92
[32] = system: IGROV-1
[33] = system: NCI-H460
[34] = system: UACC-62
[35] = system: SNB-19
[36] = system: MDA-MB-231
[37] = system: NCI-H522
[38] = system: Hs-578T
[39] = system: NCI-H23
[40] = system: DU-145
[41] = system: CCRF-CEM
[42] = system: MOLT-4
[43] = system: UACC-257
[44] = system: LOX IMVI
[45] = system: Malme-3M
[46] = system: ACHN
[47] = system: SF-268
[48] = system: M14
[49] = system: A498
[50] = system: HT-29
[51] = system: 786-0
[52] = system: HCT-15
[53] = system: MCF7
[54] = system: SF-539
[55] = system: COLO 205
[56] = system: SNB-75
[57] = system: SK-OV-3
[58] = system: MDA-MB-435
[59] = system: HCC 2998

For `O=C(O)c1oc(C(=O)O)c(C(=O)O)c1C(=O)O`, the GI50 [1] was > 100 µM (inactive), the GI50 [2] was > 100 µM (inactive) and the GI50 [3] was > 100 µM (inactive). The GI50 [4] was > 100 µM (inactive), the GI50 [5] was > 100 µM (inactive) and the GI50 [6] was > 100 µM (inactive). The GI50 [7] was > 100 µM (inactive), the GI50 [8] was > 100 µM (inactive) and the GI50 [9] was > 100 µM (inactive). The GI50 [10] was > 100 µM (inactive), the GI50 [11] was > 100 µM (inactive) and the GI50 [12] was > 100 µM (inactive). For the same compound, the GI50 [13] was > 100 µM (inactive), the GI50 [14] was > 100 µM (inactive) and the GI50 [15] was > 100 µM (inactive). The GI50 [16] was > 100 µM (inactive), the GI50 [17] was > 100 µM (inactive) and the GI50 [18] was 58.9 µM (inactive). For the same compound, the GI50 [19] was > 100 µM (inactive), the GI50 [20] was > 100 µM (inactive) and the GI50 [21] was > 100 µM (inactive). For the same compound, the GI50 [22] was > 100 µM (inactive), the GI50 [23] was > 100 µM (inactive) and the GI50 [24] was > 100 µM (inactive). For the same compound, the GI50 [25] was > 100 µM (inactive), the GI50 [26] was > 100 µM (inactive) and the GI50 [27] was > 100 µM (inactive). The GI50 [28] was > 100 µM (inactive), the GI50 [29] was > 100 µM (inactive) and the GI50 [30] was > 100 µM (inactive). The GI50 [31] was > 100 µM (inactive), the GI50 [32] was > 100 µM (inactive) and the GI50 [33] was > 100 µM (inactive). The GI50 [34] was > 100 µM (inactive), the GI50 [35] was > 100 µM (inactive) and the GI50 [36] was > 100 µM (inactive). For the same compound, the GI50 [37] was > 100 µM (inactive), the GI50 [38] was > 100 µM (inactive) and the GI50 [39] was > 100 µM (inactive). The GI50 [40] was > 100 µM (inactive), the GI50 [41] was > 100 µM (inactive) and the GI50 [42] was > 100 µM (inactive). The GI50 [43] was > 100 µM (inactive), the GI50 [44] was > 100 µM (inactive) and the GI50 [45] was > 100 µM (inactive). The GI50 [46] was > 100 µM (inactive), the GI50 [47] was > 100 µM (inactive) and the GI50 [48] was > 100 µM (inactive). The GI50 [49] was > 100 µM (inactive), the GI50 [50] was > 100 µM (inactive) and the GI50 [51] was > 100 µM (inactive). It also gave a GI50 [52] greater than 100 µM.

With `Cc1ccc(S(=O)(=O)NC(=O)NC(CCCCNC(=N)N)C(=O)O)cc1` (stereo not drawn) the GI50 [53] was > 100 µM (inactive), the GI50 [1] was > 100 µM (inactive) and the GI50 [2] was > 100 µM (inactive). For the same compound, the GI50 [5] was > 100 µM (inactive), the GI50 [6] was > 100 µM (inactive) and the GI50 [7] was > 100 µM (inactive). The GI50 [8] was > 100 µM (inactive), the GI50 [9] was > 100 µM (inactive) and the GI50 [11] was > 100 µM (inactive). The GI50 [12] was > 100 µM (inactive), the GI50 [13] was > 100 µM (inactive) and the GI50 [15] was > 100 µM (inactive). For the same compound, the GI50 [54] was > 100 µM (inactive), the GI50 [16] was > 100 µM (inactive) and the GI50 [17] was > 100 µM (inactive). The GI50 [19] was > 100 µM (inactive), the GI50 [20] was > 100 µM (inactive) and the GI50 [21] was > 100 µM (inactive). The GI50 [22] was > 100 µM (inactive), the GI50 [23] was > 100 µM (inactive) and the GI50 [24] was > 100 µM (inactive). For the same compound, the GI50 [25] was > 100 µM (inactive), the GI50 [26] was > 100 µM (inactive) and the GI50 [27] was > 100 µM (inactive). The GI50 [28] was > 100 µM (inactive), the GI50 [29] was > 100 µM (inactive) and the GI50 [30] was > 100 µM (inactive). For the same compound, the GI50 [31] was > 100 µM (inactive), the GI50 [32] was > 100 µM (inactive) and the GI50 [33] was > 100 µM (inactive). The GI50 [34] was > 100 µM (inactive), the GI50 [35] was > 100 µM (inactive) and the GI50 [36] was > 100 µM (inactive). For the same compound, the GI50 [37] was > 100 µM (inactive), the GI50 [38] was > 100 µM (inactive) and the GI50 [39] was > 100 µM (inactive). The GI50 [40] was > 100 µM (inactive), the GI50 [41] was > 100 µM (inactive) and the GI50 [55] was > 100 µM (inactive). The GI50 [42] was > 100 µM (inactive), the GI50 [43] was > 100 µM (inactive) and the GI50 [44] was > 100 µM (inactive). For the same compound, the GI50 [45] was > 100 µM (inactive), the GI50 [46] was > 100 µM (inactive) and the GI50 [47] was > 100 µM (inactive). For the same compound, the GI50 [48] was > 100 µM (inactive), the GI50 [56] was > 100 µM (inactive) and the GI50 [51] was > 100 µM (inactive). The GI50 [52] was greater than 100 µM and the GI50 [57] was > 100 µM (inactive).

With `CCCOC1OC(CS(=O)(=O)O)C(O)C(O)C1O` (stereo not drawn) the GI50 [53] was > 100 µM (inactive), the GI50 [1] was > 100 µM (inactive) and the GI50 [58] was > 100 µM (inactive). For the same compound, the GI50 [2] was > 100 µM (inactive), the GI50 [4] was > 100 µM (inactive) and the GI50 [5] was > 100 µM (inactive). The GI50 [6] was > 100 µM (inactive), the GI50 [7] was > 100 µM (inactive) and the GI50 [8] was > 100 µM (inactive). For the same compound, the GI50 [9] was > 100 µM (inactive), the GI50 [10] was > 100 µM (inactive) and the GI50 [11] was > 100 µM (inactive). For the same compound, the GI50 [12] was > 100 µM (inactive), the GI50 [13] was > 100 µM (inactive) and the GI50 [14] was > 100 µM (inactive). For the same compound, the GI50 [15] was > 100 µM (inactive), the GI50 [16] was > 100 µM (inactive) and the GI50 [17] was > 100 µM (inactive). The GI50 [18] was > 100 µM (inactive), the GI50 [19] was > 100 µM (inactive) and the GI50 [20] was > 100 µM (inactive). The GI50 [21] was > 100 µM (inactive), the GI50 [22] was > 100 µM (inactive) and the GI50 [23] was > 100 µM (inactive). The GI50 [25] was > 100 µM (inactive), the GI50 [26] was > 100 µM (inactive) and the GI50 [27] was > 100 µM (inactive). For the same compound, the GI50 [28] was > 100 µM (inactive), the GI50 [29] was > 100 µM (inactive) and the GI50 [30] was > 100 µM (inactive). The GI50 [31] was > 100 µM (inactive), the GI50 [32] was > 100 µM (inactive) and the GI50 [33] was > 100 µM (inactive). For the same compound, the GI50 [34] was > 100 µM (inactive), the GI50 [35] was > 100 µM (inactive) and the GI50 [38] was > 100 µM (inactive). For the same compound, the GI50 [39] was > 100 µM (inactive), the GI50 [40] was > 100 µM (inactive) and the GI50 [41] was > 100 µM (inactive). The GI50 [55] was > 100 µM (inactive), the GI50 [42] was > 100 µM (inactive) and the GI50 [43] was > 100 µM (inactive). For the same compound, the GI50 [44] was > 100 µM (inactive), the GI50 [45] was > 100 µM (inactive) and the GI50 [59] was > 100 µM (inactive). The GI50 [48] was > 100 µM (inactive), the GI50 [49] was > 100 µM (inactive) and the GI50 [50] was > 100 µM (inactive). For the same compound, the GI50 [56] was > 100 µM (inactive), the GI50 [52] was greater than 100 µM and the GI50 [57] was > 100 µM (inactive).
